pIC50: −log10 of the molar value. Active and inactive are the calls of the source. The calls are words filed in the database; no cut-off is given here.
Experiments:
[1] = target: Mast/stem cell growth factor receptor Kit (Homo sapiens) (UniProt P10721); test: Inhibition of cKit (unknown origin) at 0.2 uM incubated for 40 mins by radiometric kinase assay relative to control
[2] = test system: Receptor-type tyrosine-protein kinase FLT3 (Homo sapiens), P36888 [D835Y]; test: Inhibition of FLT3 D835Y mutant (unknown origin) at 0.2 uM incubated for 40 mins by radiometric kinase assay relative to control
[3] = target: Vascular endothelial growth factor receptor 3 (Homo sapiens) (UniProt P35916); test: Inhibition of FLT4 (unknown origin) at 0.2 uM incubated for 40 mins by radiometric kinase assay relative to control
Vascular endothelial growth factor receptor 3 (Homo sapiens), sequence (P35916 whole entry): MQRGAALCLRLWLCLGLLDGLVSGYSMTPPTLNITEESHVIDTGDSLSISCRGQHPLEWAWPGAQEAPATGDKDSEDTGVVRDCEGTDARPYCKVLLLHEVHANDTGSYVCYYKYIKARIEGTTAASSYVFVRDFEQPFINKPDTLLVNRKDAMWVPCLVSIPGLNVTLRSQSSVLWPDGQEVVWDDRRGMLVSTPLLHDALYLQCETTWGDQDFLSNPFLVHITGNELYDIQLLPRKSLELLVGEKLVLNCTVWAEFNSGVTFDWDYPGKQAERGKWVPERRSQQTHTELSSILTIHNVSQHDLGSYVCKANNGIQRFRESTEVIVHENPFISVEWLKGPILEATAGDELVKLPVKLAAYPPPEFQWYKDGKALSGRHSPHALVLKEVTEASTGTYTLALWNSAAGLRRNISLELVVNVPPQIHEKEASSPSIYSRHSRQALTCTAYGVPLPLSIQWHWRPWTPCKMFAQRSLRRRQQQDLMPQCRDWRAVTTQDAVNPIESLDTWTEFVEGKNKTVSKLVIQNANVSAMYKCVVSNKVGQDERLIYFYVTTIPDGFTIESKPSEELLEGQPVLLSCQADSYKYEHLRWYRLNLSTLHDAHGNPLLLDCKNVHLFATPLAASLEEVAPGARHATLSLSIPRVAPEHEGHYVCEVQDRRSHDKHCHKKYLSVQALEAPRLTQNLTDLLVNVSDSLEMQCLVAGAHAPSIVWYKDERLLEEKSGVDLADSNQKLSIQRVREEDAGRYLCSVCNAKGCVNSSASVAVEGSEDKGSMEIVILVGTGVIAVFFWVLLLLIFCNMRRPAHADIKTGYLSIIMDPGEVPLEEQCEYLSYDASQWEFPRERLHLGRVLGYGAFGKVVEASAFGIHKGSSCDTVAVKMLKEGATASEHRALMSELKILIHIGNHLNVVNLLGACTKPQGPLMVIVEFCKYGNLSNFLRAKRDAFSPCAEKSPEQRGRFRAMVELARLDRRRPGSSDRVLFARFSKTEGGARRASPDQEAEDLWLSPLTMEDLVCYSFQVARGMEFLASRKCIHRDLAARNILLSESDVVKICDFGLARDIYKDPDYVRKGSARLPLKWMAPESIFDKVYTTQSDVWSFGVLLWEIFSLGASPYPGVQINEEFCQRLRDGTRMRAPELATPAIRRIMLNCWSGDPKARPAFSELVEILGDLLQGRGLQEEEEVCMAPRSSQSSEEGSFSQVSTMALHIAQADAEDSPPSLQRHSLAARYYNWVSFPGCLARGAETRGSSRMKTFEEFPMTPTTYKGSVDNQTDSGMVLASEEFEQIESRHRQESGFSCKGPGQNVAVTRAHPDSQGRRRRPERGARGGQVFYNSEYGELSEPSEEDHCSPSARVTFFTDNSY

[4] = target: Macrophage colony-stimulating factor 1 receptor (Homo sapiens) (UniProt P07333); test: Inhibition of Fms (unknown origin) at 0.2 uM incubated for 40 mins by radiometric kinase assay relative to control
[5] = target: Inhibitor of nuclear factor kappa-B kinase subunit alpha (Homo sapiens) (UniProt O15111); test: Inhibition of IKKalpha (unknown origin) at 0.2 uM incubated for 40 mins by radiometric kinase assay relative to control
Inhibitor of nuclear factor kappa-B kinase subunit alpha (Homo sapiens), sequence (O15111 whole entry): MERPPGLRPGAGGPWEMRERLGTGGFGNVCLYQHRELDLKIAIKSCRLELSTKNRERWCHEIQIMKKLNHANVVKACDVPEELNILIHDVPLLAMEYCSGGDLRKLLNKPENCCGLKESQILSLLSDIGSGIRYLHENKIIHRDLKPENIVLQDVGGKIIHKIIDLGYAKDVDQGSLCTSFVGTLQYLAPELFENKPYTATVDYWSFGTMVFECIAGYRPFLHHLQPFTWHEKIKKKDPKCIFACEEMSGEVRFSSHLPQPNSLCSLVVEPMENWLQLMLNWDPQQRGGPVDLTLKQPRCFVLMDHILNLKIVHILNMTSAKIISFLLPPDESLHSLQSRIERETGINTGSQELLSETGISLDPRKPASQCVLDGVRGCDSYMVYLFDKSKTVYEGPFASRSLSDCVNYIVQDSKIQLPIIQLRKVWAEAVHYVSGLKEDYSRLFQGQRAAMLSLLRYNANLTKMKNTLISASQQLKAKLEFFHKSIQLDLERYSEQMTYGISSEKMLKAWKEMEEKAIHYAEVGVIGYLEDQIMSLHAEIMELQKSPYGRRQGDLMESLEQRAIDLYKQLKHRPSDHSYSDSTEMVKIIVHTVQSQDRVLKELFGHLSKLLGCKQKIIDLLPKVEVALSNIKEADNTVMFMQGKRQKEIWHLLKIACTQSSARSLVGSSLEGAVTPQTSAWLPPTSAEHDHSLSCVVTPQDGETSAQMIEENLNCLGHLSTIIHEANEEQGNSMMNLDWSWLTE

[6] = target: Tyrosine-protein kinase ITK/TSK (Homo sapiens) (UniProt Q08881); test: Inhibition of ITK (unknown origin) at 0.2 uM incubated for 40 mins by radiometric kinase assay relative to control
Tyrosine-protein kinase ITK/TSK (Homo sapiens), sequence (Q08881 whole entry): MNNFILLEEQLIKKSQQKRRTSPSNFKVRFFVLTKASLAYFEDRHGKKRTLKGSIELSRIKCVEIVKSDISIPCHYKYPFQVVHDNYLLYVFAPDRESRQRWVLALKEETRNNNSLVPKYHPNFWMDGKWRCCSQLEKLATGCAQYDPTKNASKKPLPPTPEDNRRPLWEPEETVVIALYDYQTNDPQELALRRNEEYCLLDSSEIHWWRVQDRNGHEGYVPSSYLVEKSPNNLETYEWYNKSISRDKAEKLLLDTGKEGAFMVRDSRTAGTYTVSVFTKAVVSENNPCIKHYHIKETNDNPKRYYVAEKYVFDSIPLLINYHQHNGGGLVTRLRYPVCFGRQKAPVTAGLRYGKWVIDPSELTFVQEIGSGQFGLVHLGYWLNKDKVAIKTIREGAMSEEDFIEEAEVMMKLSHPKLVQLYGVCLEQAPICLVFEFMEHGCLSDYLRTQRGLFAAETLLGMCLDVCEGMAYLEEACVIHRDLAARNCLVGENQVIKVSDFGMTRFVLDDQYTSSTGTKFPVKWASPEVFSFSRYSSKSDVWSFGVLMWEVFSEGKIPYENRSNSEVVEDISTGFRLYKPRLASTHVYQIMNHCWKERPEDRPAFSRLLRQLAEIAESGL

[7] = target: Mitogen-activated protein kinase 8 (Homo sapiens) (UniProt P45983); test: Inhibition of JNK1alpha1 (unknown origin) at 0.2 uM incubated for 40 mins by radiometric kinase assay relative to control
[8] = target: Mitogen-activated protein kinase 9 (Homo sapiens) (UniProt P45984); test: Inhibition of JNK2alpha2 (unknown origin) at 0.2 uM incubated for 40 mins by radiometric kinase assay relative to control
Mitogen-activated protein kinase 9 (Homo sapiens), sequence (P45984 whole entry, looked up): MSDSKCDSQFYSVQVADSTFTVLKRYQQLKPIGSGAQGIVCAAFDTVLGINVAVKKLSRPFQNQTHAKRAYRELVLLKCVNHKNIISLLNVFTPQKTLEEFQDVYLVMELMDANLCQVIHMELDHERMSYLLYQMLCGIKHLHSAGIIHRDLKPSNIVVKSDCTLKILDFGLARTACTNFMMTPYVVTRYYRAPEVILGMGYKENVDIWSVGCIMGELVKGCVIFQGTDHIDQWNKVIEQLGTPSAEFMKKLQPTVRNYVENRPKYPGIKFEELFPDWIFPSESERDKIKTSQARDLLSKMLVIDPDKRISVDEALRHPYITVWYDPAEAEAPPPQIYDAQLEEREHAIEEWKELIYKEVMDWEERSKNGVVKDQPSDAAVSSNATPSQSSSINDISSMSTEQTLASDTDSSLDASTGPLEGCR

[9] = target: PI3-kinase p110-alpha/p85-alpha (Homo sapiens) (UniProt P27986+P42336); test: Inhibition of PI3 Kinase p110a/p85a (unknown origin) at 0.2 uM incubated for 40 mins by radiometric kinase assay relative to control; assay type: protein-complex assay
[10] = target: Serine/threonine-protein kinase pim-1 (Homo sapiens) (UniProt P11309); test: Inhibition of PIM-1 (unknown origin) at 0.2 uM incubated for 40 mins by radiometric kinase assay relative to control
Serine/threonine-protein kinase pim-1 (Homo sapiens), sequence (P11309 whole entry, looked up): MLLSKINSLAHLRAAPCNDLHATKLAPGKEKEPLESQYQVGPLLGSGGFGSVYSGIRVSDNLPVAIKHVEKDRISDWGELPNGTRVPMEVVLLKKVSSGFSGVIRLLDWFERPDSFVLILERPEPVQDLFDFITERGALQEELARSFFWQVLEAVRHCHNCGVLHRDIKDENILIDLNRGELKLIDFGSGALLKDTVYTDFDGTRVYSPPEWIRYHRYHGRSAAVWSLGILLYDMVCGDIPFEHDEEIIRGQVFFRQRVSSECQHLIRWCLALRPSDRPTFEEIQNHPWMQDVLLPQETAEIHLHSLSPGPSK

[11] = target: Death-associated protein kinase 3 (Homo sapiens) (UniProt O43293); test: Inhibition of ZIPK (unknown origin) at 0.2 uM incubated for 40 mins by radiometric kinase assay relative to control
Death-associated protein kinase 3 (Homo sapiens), sequence (O43293 whole entry, looked up): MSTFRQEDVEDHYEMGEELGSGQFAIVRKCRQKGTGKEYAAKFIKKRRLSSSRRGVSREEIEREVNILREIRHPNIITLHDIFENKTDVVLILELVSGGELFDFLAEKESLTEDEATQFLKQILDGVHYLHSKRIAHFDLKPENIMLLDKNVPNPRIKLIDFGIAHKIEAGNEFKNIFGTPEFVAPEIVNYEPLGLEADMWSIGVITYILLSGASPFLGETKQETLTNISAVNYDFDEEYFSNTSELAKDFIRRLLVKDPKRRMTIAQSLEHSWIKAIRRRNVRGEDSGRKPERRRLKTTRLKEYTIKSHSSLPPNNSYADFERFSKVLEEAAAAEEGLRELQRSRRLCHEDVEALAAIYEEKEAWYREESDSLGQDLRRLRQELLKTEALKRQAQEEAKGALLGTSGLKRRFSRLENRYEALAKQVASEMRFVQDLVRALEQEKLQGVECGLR

K562 = test: Potency index, ratio of ibrutinib IC50 to test compound IC50 for antiproliferative activity against human K562 cells; assay type: functional
MOLT-4 [12] = test: Potency index, ratio of sorafenib IC50 to test compound IC50 for antiproliferative activity against human MOLT-4 cells; assay type: functional
[13] = target: Receptor-type tyrosine-protein kinase FLT3 (Homo sapiens) (UniProt P36888); test: Inhibition of FLT3 phosphorylation in human JeKo-1 cells incubated for 72 hrs by Western blot analysis; assay type: cell-based; conditions: dose 30-750 nM
JeKo-1 [14] = test: Induction of apoptosis in human JeKo-1 cells assessed as early apoptotic cells at 30 nM incubated for 72 hrs by Annexin VFITC/PI staining based flow cytometry analysis (reference value: 3.10%); assay type: functional
JeKo-1 [15] = test: Induction of apoptosis in human JeKo-1 cells assessed as late apoptotic cells at 30 nM incubated for 72 hrs by Annexin VFITC/PI staining based flow cytometry analysis (reference value: 1.42%); assay type: functional
JeKo-1 [16] = test: Induction of apoptosis in human JeKo-1 cells assessed as early apoptotic cells at 150 nM incubated for 72 hrs by Annexin VFITC/PI staining based flow cytometry analysis (reference value: 3.10%); assay type: functional
JeKo-1 [17] = test: Induction of apoptosis in human JeKo-1 cells assessed as late apoptotic cells at 150 nM incubated for 72 hrs by Annexin VFITC/PI staining based flow cytometry analysis (reference value: 1.42%); assay type: functional
JeKo-1 [18] = test: Induction of apoptosis in human JeKo-1 cells assessed as necrotic cells at 150 nM incubated for 72 hrs by Annexin VFITC/PI staining based flow cytometry analysis (reference value: 0.67%); assay type: functional
JeKo-1 [19] = test: Induction of apoptosis in human JeKo-1 cells assessed as viable cells at 750 nM incubated for 72 hrs by Annexin VFITC/PI staining based flow cytometry analysis (reference value: 94.81%); assay type: functional; conditions: Homo sapiens, JeKo-1, read-out: Activity
JeKo-1 [20] = test: Induction of apoptosis in human JeKo-1 cells assessed as early apoptotic cells at 750 nM incubated for 72 hrs by Annexin VFITC/PI staining based flow cytometry analysis (reference value: 3.10%); assay type: functional
JeKo-1 [21] = test: Induction of apoptosis in human JeKo-1 cells assessed as late apoptotic cells at 750 nM incubated for 72 hrs by Annexin VFITC/PI staining based flow cytometry analysis (reference value: 1.42%); assay type: functional
JeKo-1 [22] = test: Induction of apoptosis in human JeKo-1 cells assessed as downregulation of Bcl-2 protein expression at 30 to 750 nM incubated for 72 hrs by Western blot analysis; assay type: functional, cell-based; conditions: dose 30-750 nM
[23] = Metabolic stability in human liver microsome assessed as half life preincubated with compound for 5 mins followed by NADPH addition and measured upto 60 mins by LC-MS/MS analysis; assay type: ADME; conditions: liver microsomes, time < 65 min
[24] = Acute toxicity in ICR mouse assessed as animal survival at 585.9 mg/kg, ip measured for 2 weeks; assay type: organism-based; conditions: in vivo
[25] = Acute toxicity in ICR mouse assessed as animal survival at 300 mg/kg, ip measured for 2 weeks; assay type: organism-based; conditions: in vivo
JeKo-1 [26] = test: Antitumor activity against human JeKo-1 cells xenografted NOD/SCID mouse assessed as tumor growth inhibition at 50 mg/kg, ip measured for 16 days; assay type: functional; conditions: JeKo-1, 384 h, time 16 day, read-out: TGI
[27] = Toxicity in NOD/SCID mouse xenografted with human JeKo-1 cells assessed as effect on body weight at 25 to 50 mg/kg, ip measured for 16 days; assay type: organism-based; conditions: in vivo, 384 h, dose 25-50 mg/kg, time 16 day
[28] = Toxicity in NOD/SCID mouse xenografted with human JeKo-1 cells assessed as drinking abnormalities at 25 to 50 mg/kg, ip measured for 16 days; assay type: organism-based; conditions: in vivo, 384 h, dose 25-50 mg/kg, time 16 day
MV4-11 [29] = test: Antitumor activity against human MV4-11 cells xenografted in NOD/SCID mouse assessed as tumor growth inhibition at 20 mg/kg ip administered once daily for 21 days; assay type: functional; conditions: MV4-11, 504 h, time 21 day, read-out: TGI
MV4-11 [30] = test: Antitumor activity against human MV4-11 cells xenografted NOD/SCID mouse assessed as reduction in tumor weight at 10 mg/kg, ip administered once daily for 21 days; assay type: functional; conditions: time 21 day
MV4-11 [31] = test: Antitumor activity against human MV4-11 cells xenografted NOD/SCID mouse assessed as increase in tumor necrotic cells at 20 mg/kg, ip administered once daily for 21 days by H and E staining analysis; assay type: functional, organism-based; conditions: time 21.0 day
MOLT-4 [32] = test: cells; conditions: Homo sapiens, MOLT-4, 72 h
Description: Antiproliferative activity against human MOLT-4 cells assessed as inhibition of cell growth incubated for 72 hrs by CCK8 assay

in vitro = conditions: human, Caco-2
Description: Apparent permeability across basolateral to apical side in human Caco-2 cells incubated for 120 mins by LC-MS/MS analysis

Mast/stem cell growth factor receptor Kit (Homo sapiens), sequence (P10721 whole entry): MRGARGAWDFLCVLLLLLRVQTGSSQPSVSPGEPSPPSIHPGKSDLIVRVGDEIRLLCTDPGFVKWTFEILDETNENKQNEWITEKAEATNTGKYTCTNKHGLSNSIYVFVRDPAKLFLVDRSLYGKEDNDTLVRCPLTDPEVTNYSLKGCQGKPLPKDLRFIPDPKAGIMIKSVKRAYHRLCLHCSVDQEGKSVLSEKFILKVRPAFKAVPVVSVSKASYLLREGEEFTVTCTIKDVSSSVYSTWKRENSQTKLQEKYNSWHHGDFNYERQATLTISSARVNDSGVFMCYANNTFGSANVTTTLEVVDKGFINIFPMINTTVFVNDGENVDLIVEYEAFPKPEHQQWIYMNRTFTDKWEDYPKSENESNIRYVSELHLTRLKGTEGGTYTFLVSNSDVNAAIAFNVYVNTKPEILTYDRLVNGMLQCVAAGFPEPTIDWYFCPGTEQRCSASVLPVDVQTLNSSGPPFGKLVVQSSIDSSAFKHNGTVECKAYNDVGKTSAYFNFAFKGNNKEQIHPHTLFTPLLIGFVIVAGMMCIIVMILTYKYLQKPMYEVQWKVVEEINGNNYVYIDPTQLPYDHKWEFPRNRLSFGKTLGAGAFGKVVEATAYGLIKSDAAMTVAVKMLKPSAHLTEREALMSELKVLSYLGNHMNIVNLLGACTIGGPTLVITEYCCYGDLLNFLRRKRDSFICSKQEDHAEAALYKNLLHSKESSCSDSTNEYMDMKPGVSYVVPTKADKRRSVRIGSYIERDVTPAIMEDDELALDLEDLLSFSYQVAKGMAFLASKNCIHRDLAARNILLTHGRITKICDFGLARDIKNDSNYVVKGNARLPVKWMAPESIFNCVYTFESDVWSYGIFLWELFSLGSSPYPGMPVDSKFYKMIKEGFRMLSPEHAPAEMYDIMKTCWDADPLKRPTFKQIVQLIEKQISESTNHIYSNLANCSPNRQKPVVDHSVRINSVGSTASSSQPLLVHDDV

CN1CCN(c2ccc(Nc3ncc(F)c(Nc4ccccc4C(=O)NN)n3)cc2)CC1
inhibition [1]: 10%
inhibition [2]: 101%
inhibition [3]: 100%
inhibition [4]: 67%
inhibition [5]: 17%
inhibition [6]: 65%
inhibition [7]: 27%
inhibition [8]: 11%
inhibition [9]: 13%
inhibition [10]: 28%
inhibition [11]: 26%
Ratio IC50 (K562): 6
Ratio IC50 (MOLT-4 [12]): 1.3
inhibition [13]: Dose-Dependent Effect
Activity (JeKo-1 [14]): 12.08%
Activity (JeKo-1 [15]): 0.18%
Activity (JeKo-1 [16]): 25.6%
Activity (JeKo-1 [17]): 1.65%
Activity (JeKo-1 [18]): 0.37%
viability at 0.75 µM (JeKo-1 [19]): 61.5%
Activity (JeKo-1 [20]): 37.89%
Activity (JeKo-1 [21]): 0.47%
Activity (JeKo-1 [22]): Active
half-life [23]: 41.5 min
survival at 336 h [24]: 0%
survival at 336 h [25]: 60%
inhibition in vivo at 50 mg/kg (JeKo-1 [26]): 79.8%
Activity [27]: Non-Toxic
Activity [28]: Non-Toxic
inhibition in vivo at 20 mg/kg (MV4-11 [29]): 100%
Activity (MV4-11 [30]): 0.33 g
Activity (MV4-11 [31]): Active
pIC50 (MOLT-4 [32]): 7.96
Papp B→A at 2 h (in vitro): 13.5 ×10⁻⁶ cm/s
